This assay has as its system T1, CfRhoPDE1.
T1 construct: full-length with N-terminal YFP tag kept; gene codon-optimised to Mus musculus, pGEMHE vector; Xenopus oocyte membrane fraction; all-trans retinal supplied
Briefly: cGMP hydrolysis by oocyte membranes, chemiluminescent immunoassay, Michaelis-Menten fit. It is filed as biochemical, Choanoeca flexa. As to conditions: dark; pH 7.3, 5 mM MgCl2, 100 mM NaCl, 5 mM DTT; 1-100 μM cGMP.

Our source for the Km values is paper PMC8774190, “Characterization and Modification of Light-Sensitive Phosphodiesterases from Choanoflagellates” (Biomolecules, 2022).

One may read the Km as the substrate concentration at which the rate is half of its maximum. For `Nc1nc2c(ncn2[C@@H]2O[C@@H]3COP(=O)(O)O[C@H]3[C@H]2O)c(=O)[nH]1` [cGMP], the Km is about 15 µM.
